Reference: patent US8877778B2, “Benzofurane compounds” (Hoffmann-La Roche Inc., priority 2010, dated 2014)

What was measured:
human D2 receptor = human D2 receptor (Homo sapiens (Human), UniProt P14416); test: Radioligand binding ([3H]-spiperone) to cloned receptors expressed in HEK-293 EBNA cells; settings: HEK293 EBNA cell membranes expressing human D2
How it was run: (§1)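 Membranes from transiently transfected HEK293 EBNA cells incubated 1 h at RT with ten compound concentrations (10 μM–0.1 nM). D2/D3: [3H]-spiperone ~0.7/0.5 nM, Tris–NaCl–Mg/Ca buffer pH 7.4; 5-HT2A: [3H]-ketanserin 1.1 nM, Tris–MgCl2–EGTA pH 7.4.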

human D3 receptor = human D3 receptor (Homo sapiens (Human), UniProt P35462); test: as above; settings: HEK293 EBNA cell membranes expressing human D3
How it was run: as §1

human 5-HT2A receptor = human 5-HT2A receptor (Homo sapiens (Human), UniProt P28223); test: Radioligand binding ([3H]-ketanserin) to cloned receptors expressed in HEK-293 EBNA cells; settings: HEK293 EBNA cell membranes expressing human 5-HT2A
How it was run: as §1

human D3 receptor, sequence (P35462 whole entry): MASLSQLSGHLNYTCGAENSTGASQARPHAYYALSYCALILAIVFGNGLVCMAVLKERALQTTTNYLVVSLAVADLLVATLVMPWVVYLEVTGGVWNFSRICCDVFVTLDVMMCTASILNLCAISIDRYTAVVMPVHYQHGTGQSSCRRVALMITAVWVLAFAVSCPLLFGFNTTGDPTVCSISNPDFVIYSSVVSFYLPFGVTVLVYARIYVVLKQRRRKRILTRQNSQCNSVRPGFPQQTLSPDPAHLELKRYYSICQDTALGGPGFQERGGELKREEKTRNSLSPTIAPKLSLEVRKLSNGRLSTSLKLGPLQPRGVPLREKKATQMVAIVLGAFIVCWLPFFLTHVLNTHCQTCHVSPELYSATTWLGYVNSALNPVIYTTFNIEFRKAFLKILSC
human D2 receptor, sequence (P14416 whole entry): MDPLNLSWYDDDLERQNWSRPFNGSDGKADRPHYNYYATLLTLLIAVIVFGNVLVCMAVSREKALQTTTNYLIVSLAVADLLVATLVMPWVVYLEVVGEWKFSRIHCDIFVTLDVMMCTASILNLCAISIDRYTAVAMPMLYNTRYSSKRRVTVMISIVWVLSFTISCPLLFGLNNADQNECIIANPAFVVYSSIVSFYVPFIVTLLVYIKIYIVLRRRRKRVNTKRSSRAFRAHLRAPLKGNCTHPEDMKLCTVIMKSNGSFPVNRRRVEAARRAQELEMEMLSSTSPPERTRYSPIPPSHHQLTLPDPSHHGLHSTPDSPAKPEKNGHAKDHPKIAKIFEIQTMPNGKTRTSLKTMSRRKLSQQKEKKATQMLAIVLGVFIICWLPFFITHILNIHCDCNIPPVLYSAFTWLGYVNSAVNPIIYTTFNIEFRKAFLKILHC
human 5-HT2A receptor, sequence (P28223 whole entry): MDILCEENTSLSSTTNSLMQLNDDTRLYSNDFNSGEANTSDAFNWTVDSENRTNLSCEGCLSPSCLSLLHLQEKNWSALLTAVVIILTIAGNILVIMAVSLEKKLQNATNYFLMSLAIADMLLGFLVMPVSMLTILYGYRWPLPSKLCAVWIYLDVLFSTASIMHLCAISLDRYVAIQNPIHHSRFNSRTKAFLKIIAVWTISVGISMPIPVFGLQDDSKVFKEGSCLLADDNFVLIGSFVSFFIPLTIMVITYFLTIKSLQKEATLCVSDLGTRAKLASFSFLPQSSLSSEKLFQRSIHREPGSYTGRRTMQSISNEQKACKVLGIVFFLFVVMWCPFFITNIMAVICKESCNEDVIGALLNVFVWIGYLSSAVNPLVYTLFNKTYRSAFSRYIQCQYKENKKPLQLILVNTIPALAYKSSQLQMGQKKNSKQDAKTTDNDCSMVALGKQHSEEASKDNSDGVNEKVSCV

Structure (SMILES) | Ki (human D2 receptor) | Ki (human D3 receptor) | Ki (human 5-HT2A receptor) | melting point
O=C(N[C@H]1CC[C@H](CCN2CCC(c3cccc4c3CCO4)CC2)CC1)c1ccc(Cl)cc1Cl [Example 89, trans-2,4-Dichloro-N-(4-{2-[4-(2,3-dihydro-benzofuran-4-yl)-piperidin-1-yl]-ethyl}-cyclohexyl)-benzamide] | 0.234 µM | 0.00828 µM | 0.0315 µM | 188 °C
O=C(N[C@H]1CC[C@H](CCN2CCC(c3cccc4c3CCO4)CC2)CC1)c1ccc(-n2cccc2)cc1 [Example 90, trans-N-(4-{2-[4-(2,3-Dihydro-benzofuran-4-yl)-piperidin-1-yl]-ethyl}-cyclohexyl)-4-pyrrol-1-yl-benzamide] | 0.0851 µM | 0.0105 µM | 0.0304 µM | 228 °C
O=C(N[C@H]1CC[C@H](CCN2CCC(c3cccc4c3CCO4)CC2)CC1)c1ccc(-c2ccccc2)cc1 [Example 91, Biphenyl-4-carboxylic acid trans-(4-{2-[4-(2,3-dihydro-benzofuran-4-yl)-piperidin-1-yl]-ethyl}-cyclohexyl)-amide] | 0.501 µM | 0.00781 µM | 0.0281 µM | 241 °C
O=C(N[C@H]1CC[C@H](CCN2CCC(c3cccc4c3CCO4)CC2)CC1)c1ccc(-c2cccnc2)cc1 [Example 92, trans-N-(4-{2-[4-(2,3-Dihydro-benzofuran-4-yl)-piperidin-1-yl]-ethyl}-cyclohexyl)-4-pyridin-3-yl-benzamide] | 0.0998 µM | 0.00535 µM | 0.0254 µM | 224 °C
O=C(Cc1noc2ccccc12)N[C@H]1CC[C@H](CCN2CCC(c3cccc4c3CCO4)CC2)CC1 [Example 93, trans-2-Benzo[d] isoxazol-3-yl-N-(4-{2-[4-(2,3-dihydro-benzofuran-4-yl)-piperidin-1-yl]-ethyl}-cyclohexyl)-acetamide] | 0.244 µM | 0.00321 µM | 0.0307 µM | 214 °C
O=C(Cc1ccc2c(c1)OCO2)N[C@H]1CC[C@H](CCN2CCC(c3cccc4c3CCO4)CC2)CC1 [Example 94, trans-2-Benzo[1,3]dioxol-5-yl-N-(4-{2-[4-(2,3-dihydro-benzofuran-4-yl)-piperidin-1-yl]-ethyl}-cyclohexyl)-acetamide] | 0.721 µM | 0.00365 µM | 0.0453 µM | 209 °C
CS(=O)(=O)c1ccc(C(=O)N[C@H]2CC[C@H](CCN3CCC(c4cccc5c4CCO5)CC3)CC2)cc1 [Example 95, trans-N-(4-{2-[4-(2,3-Dihydro-benzofuran-4-yl)-piperidin-1-yl]-ethyl}-cyclohexyl)-4-methanesulfonyl-benzamide] | 0.162 µM | 0.014 µM | 0.0147 µM | 236 °C
